Assay results reported in ChEMBL document CHEMBL4033665, “Synthesis and applications of benzohydroxamic acid-based histone deacetylase inhibitors” (Eur J Med Chem, 2017).

Key:
Histone deacetylase 3 [1] = molecular target: T1, Histone deacetylase 3 (Homo sapiens, UniProt O15379); test: Inhibition of C-terminal His-tagged full length human HDAC3 expressed in baculovirus expression system using AMC-labeled RHKKAc as substrate after 2 hrs by fluorescence assay
Histone deacetylase 1 [2] = molecular target: T2, Histone deacetylase 1 (Homo sapiens, UniProt Q13547); test: Inhibition of C-terminal GST-tagged full length human HDAC1 expressed in baculovirus expression system in Sf9 cells using AMC-labeled RHKKAc as substrate after 2 hrs by fluorescence assay
[3] = molecular target: T3, Protein deacetylase HDAC6 (Homo sapiens, UniProt Q9UBN7); test: Inhibition of N-terminal GST-tagged full length human HDAC6 expressed in baculovirus expression system in Sf9 cells using AMC-labeled RHKKAc as substrate after 2 hrs by fluorescence assay
T3 sequence (Q9UBN7 whole entry): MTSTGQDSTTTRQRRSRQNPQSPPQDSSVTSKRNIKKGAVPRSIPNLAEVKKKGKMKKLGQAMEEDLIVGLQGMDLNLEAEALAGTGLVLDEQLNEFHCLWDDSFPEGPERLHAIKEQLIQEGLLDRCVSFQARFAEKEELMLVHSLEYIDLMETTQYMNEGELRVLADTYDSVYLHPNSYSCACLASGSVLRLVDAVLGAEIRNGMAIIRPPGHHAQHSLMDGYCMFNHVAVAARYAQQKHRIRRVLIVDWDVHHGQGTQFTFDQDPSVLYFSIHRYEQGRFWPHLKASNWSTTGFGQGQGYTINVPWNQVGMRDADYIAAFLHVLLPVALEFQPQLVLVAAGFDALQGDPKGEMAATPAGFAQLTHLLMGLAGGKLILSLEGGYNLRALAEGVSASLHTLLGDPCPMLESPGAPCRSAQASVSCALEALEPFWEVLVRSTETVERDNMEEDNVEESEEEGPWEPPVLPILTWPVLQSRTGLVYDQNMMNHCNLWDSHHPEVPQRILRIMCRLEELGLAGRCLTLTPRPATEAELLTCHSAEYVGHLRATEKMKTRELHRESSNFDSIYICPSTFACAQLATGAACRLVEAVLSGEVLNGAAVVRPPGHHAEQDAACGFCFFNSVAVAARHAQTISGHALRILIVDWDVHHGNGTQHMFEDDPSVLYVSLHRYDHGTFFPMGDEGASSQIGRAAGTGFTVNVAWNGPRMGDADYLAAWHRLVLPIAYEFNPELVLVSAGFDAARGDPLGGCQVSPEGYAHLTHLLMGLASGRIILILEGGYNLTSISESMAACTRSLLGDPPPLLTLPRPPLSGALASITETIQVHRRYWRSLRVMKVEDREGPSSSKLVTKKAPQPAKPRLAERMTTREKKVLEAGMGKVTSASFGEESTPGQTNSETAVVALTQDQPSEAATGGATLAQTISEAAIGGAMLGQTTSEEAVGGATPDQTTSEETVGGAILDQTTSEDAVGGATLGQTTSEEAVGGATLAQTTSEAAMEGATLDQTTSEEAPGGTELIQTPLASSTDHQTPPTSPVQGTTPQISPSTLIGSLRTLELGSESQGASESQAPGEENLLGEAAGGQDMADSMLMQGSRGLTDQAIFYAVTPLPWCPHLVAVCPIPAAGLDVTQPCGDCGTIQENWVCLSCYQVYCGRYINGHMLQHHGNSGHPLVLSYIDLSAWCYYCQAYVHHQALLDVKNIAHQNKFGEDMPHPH

Histone deacetylase 4 [4] = molecular target: T4, Histone deacetylase 4 (Homo sapiens, UniProt P56524); test: Inhibition of HDAC4 (unknown origin)
Histone deacetylase 5 [5] = molecular target: T5, Histone deacetylase 5 (Homo sapiens, UniProt Q9UQL6); test: Inhibition of HDAC5 (unknown origin)
Histone deacetylase 2 [6] = molecular target: T6, Histone deacetylase 2 (Homo sapiens, UniProt Q92769); test: Inhibition of HDAC2 (unknown origin)
Histone deacetylase 1 [7] = molecular target: T2, Histone deacetylase 1; test: Inhibition of HDAC1 (unknown origin)
Histone deacetylase 8 [8] = molecular target: T7, Histone deacetylase 8 (Homo sapiens, UniProt Q9BY41); test: Inhibition of HDAC8 (unknown origin)
T7 sequence (Q9BY41 whole entry): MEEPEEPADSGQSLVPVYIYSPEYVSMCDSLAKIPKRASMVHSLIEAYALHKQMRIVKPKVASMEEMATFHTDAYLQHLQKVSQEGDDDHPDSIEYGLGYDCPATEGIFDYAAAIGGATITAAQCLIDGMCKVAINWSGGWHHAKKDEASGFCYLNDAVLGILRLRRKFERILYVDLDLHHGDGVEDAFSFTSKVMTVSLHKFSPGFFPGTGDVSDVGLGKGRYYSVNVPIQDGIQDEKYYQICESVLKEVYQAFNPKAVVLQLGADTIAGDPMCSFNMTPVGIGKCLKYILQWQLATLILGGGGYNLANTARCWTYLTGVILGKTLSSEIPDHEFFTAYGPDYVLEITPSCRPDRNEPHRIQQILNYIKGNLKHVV

Histone deacetylase 3 [9] = molecular target: T1, Histone deacetylase 3; test: Inhibition of HDAC3 (unknown origin)
[10] = molecular target: T3, Protein deacetylase HDAC6; test: Inhibition of HDAC6 (unknown origin)
Histone deacetylase 9 = Histone deacetylase 9 (Homo sapiens, UniProt Q9UKV0); test: Inhibition of HDAC9 (unknown origin)
Histone deacetylase 11 = molecular target: T8, Histone deacetylase 11 (Homo sapiens, UniProt Q96DB2); test: Inhibition of HDAC11 (unknown origin)
T8 sequence (Q96DB2 whole entry): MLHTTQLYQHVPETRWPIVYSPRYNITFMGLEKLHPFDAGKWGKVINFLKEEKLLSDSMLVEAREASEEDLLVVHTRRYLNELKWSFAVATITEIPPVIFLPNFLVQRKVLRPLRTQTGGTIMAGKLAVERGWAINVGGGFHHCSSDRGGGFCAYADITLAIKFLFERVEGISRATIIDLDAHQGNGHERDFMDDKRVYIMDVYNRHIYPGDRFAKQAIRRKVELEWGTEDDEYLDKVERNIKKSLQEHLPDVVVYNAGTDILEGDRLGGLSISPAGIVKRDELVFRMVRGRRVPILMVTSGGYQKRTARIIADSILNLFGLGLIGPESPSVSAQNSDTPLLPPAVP

[11] = molecular target: T9, Polyamine deacetylase HDAC10 (Homo sapiens, UniProt Q969S8); test: Inhibition of HDAC10 (unknown origin)
T9 sequence (Q969S8 whole entry): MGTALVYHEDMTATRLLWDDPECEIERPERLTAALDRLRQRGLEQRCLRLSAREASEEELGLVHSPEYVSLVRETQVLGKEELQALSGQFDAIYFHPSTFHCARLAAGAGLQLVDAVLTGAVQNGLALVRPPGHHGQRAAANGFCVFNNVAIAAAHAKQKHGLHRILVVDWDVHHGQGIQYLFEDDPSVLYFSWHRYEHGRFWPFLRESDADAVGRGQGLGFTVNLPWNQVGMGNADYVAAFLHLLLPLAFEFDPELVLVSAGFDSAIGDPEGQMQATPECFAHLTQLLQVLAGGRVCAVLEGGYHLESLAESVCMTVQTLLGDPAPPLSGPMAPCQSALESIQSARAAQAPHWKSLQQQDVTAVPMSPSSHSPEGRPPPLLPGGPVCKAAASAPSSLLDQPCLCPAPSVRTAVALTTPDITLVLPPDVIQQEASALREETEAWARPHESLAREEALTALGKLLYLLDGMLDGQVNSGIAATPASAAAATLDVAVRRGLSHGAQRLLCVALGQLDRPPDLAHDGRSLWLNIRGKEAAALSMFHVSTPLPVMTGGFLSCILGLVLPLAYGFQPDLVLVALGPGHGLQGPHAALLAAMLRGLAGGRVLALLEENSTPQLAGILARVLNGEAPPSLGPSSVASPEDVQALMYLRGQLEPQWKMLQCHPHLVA

Histone deacetylase 7 = molecular target: T10, Histone deacetylase 7 (Homo sapiens, UniProt Q8WUI4); test: Inhibition of HDAC7 (unknown origin)
T10 sequence (Q8WUI4 whole entry): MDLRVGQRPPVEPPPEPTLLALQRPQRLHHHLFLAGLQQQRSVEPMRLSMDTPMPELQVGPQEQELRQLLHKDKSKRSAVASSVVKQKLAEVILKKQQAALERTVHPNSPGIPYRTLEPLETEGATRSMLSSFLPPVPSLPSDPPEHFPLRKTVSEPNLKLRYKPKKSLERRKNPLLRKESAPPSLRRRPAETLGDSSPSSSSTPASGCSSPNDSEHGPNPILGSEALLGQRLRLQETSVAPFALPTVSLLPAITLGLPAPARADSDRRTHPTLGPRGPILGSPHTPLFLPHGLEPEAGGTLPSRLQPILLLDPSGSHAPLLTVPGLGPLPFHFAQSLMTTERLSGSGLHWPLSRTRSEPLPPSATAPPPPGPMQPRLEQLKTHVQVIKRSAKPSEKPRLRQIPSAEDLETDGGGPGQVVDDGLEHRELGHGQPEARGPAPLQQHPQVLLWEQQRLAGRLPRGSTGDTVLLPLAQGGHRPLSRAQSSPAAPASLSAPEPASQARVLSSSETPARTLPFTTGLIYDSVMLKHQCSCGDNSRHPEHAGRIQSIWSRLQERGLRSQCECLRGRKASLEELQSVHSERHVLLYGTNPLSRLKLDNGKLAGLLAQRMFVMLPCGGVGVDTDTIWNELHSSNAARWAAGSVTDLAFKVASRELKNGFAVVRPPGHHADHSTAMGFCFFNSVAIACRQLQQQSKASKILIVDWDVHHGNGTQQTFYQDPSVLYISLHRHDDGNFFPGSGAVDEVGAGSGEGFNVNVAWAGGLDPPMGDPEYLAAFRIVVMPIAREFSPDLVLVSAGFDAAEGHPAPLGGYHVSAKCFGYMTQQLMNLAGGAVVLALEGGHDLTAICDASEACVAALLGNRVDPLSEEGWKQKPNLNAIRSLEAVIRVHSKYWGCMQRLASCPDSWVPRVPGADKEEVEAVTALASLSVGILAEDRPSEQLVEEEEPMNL

Histone deacetylase 5 [12] = molecular target: T5, Histone deacetylase 5; test: Inhibition of human HDAC5 using RHKKAc as substrate by fluorescence assay
Histone deacetylase 4 [13] = molecular target: T4, Histone deacetylase 4; test: Inhibition of human HDAC4 using RHKKAc as substrate by fluorescence assay
Histone deacetylase 2 [14] = molecular target: T6, Histone deacetylase 2; test: Inhibition of human HDAC2 using RHKKAc as substrate by fluorescence assay
Histone deacetylase 1 [15] = molecular target: T2, Histone deacetylase 1; test: Inhibition of human HDAC1 using RHKKAc as substrate by fluorescence assay
Histone deacetylase 8 [16] = molecular target: T7, Histone deacetylase 8; test: Inhibition of human HDAC8 using RHKKAc as substrate by fluorescence assay
[17] = molecular target: T3, Protein deacetylase HDAC6; test: Inhibition of human HDAC6 using RHKKAc as substrate by fluorescence assay
[18] = molecular target: T9, Polyamine deacetylase HDAC10; test: Inhibition of human HDAC10 using RHKKAc as substrate by fluorescence assay
[19] = Inhibition of HDAC activity in human DU-145 cell nuclear extract

T4 sequence (P56524 whole entry): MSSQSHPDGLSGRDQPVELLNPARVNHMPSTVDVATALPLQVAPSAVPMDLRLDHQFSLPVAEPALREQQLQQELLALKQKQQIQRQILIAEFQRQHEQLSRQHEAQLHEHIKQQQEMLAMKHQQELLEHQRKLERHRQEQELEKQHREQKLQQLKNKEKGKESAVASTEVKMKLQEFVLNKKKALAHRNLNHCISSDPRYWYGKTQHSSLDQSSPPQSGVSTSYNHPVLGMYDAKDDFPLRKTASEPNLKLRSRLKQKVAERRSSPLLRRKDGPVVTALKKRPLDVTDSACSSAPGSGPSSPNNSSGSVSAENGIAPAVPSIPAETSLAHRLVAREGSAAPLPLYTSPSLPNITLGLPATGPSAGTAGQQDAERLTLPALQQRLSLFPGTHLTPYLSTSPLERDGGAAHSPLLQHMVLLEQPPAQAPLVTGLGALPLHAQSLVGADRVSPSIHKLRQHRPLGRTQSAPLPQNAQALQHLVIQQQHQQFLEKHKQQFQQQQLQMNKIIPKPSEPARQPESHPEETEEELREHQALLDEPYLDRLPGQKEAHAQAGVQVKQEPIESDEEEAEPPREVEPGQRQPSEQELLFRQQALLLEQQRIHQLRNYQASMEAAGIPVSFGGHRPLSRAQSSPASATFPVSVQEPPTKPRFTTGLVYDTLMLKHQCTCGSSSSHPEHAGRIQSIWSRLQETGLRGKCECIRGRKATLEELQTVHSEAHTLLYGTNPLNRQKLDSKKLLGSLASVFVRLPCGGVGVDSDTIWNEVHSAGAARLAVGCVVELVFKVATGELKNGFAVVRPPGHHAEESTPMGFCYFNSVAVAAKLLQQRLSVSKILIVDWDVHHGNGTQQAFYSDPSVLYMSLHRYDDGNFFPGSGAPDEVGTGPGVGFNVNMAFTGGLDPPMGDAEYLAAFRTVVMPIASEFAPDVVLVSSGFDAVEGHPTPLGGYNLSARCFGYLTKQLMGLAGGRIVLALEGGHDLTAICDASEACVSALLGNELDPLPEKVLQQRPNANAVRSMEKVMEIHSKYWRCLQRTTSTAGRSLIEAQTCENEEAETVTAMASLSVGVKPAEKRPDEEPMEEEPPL
T1 sequence (O15379 whole entry): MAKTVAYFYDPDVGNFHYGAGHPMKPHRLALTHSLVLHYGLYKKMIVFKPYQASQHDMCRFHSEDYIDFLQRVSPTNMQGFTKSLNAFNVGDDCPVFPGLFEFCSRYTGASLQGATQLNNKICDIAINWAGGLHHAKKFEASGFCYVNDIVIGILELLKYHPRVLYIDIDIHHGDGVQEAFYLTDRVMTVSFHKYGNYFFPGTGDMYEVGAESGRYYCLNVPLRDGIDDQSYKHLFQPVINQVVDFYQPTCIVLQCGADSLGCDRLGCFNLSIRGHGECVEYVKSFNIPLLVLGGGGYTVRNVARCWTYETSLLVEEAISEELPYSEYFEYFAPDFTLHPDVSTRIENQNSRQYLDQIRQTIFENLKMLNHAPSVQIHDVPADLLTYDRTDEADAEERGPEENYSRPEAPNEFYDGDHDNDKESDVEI
T2 sequence (Q13547 whole entry): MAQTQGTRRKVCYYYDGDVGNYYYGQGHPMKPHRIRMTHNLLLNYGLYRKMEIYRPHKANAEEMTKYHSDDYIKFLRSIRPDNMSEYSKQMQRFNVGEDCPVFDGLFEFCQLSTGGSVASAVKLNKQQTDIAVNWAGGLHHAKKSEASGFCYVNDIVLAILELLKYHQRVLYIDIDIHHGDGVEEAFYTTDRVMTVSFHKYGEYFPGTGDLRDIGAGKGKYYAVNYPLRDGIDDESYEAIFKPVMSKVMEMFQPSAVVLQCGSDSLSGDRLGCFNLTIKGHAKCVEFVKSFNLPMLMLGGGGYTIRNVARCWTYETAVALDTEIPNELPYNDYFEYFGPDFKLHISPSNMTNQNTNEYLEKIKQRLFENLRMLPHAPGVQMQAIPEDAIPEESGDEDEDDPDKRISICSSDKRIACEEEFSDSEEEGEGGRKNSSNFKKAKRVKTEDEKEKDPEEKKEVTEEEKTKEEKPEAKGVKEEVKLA
T5 sequence (Q9UQL6 whole entry): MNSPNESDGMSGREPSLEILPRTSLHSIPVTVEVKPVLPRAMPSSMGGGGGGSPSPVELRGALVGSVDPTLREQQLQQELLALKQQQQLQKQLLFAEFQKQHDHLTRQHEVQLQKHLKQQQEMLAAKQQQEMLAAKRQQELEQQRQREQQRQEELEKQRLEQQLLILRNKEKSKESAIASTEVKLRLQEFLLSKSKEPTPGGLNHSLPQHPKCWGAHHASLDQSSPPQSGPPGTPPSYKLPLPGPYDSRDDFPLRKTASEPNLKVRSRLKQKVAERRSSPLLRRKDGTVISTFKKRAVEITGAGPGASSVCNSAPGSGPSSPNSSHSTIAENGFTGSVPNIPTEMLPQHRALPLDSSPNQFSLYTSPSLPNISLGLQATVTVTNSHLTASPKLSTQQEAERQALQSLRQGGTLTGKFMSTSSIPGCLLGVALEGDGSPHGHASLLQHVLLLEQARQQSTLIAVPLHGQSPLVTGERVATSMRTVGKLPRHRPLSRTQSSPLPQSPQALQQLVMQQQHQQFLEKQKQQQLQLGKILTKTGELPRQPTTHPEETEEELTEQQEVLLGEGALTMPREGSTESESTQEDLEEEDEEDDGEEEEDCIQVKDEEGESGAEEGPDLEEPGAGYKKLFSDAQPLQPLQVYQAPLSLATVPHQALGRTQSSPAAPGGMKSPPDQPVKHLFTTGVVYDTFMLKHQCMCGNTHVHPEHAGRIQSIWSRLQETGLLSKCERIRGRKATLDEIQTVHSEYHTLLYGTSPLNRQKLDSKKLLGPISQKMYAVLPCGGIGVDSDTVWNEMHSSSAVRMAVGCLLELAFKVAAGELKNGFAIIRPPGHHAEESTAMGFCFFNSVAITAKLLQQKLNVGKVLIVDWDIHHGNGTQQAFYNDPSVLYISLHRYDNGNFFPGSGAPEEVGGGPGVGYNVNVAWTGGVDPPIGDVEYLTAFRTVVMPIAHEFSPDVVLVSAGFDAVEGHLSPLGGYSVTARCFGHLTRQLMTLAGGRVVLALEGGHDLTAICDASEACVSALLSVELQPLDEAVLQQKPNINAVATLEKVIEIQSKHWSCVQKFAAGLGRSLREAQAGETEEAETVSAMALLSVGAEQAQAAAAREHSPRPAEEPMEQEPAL
T6 sequence (Q92769 whole entry): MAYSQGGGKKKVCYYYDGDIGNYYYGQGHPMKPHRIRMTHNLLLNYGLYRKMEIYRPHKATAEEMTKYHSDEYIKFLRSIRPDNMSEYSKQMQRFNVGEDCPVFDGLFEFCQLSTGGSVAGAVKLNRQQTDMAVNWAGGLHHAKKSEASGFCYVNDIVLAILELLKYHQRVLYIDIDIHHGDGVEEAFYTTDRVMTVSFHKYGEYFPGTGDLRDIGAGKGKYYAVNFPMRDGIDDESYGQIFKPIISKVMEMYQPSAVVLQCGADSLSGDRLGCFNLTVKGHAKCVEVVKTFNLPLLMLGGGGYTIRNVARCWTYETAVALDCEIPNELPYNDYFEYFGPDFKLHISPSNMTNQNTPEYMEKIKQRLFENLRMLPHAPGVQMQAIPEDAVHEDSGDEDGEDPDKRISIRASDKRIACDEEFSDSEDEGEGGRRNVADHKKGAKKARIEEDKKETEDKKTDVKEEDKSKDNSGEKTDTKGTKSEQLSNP
Sequence of Histone deacetylase 9 (Q9UKV0 whole entry): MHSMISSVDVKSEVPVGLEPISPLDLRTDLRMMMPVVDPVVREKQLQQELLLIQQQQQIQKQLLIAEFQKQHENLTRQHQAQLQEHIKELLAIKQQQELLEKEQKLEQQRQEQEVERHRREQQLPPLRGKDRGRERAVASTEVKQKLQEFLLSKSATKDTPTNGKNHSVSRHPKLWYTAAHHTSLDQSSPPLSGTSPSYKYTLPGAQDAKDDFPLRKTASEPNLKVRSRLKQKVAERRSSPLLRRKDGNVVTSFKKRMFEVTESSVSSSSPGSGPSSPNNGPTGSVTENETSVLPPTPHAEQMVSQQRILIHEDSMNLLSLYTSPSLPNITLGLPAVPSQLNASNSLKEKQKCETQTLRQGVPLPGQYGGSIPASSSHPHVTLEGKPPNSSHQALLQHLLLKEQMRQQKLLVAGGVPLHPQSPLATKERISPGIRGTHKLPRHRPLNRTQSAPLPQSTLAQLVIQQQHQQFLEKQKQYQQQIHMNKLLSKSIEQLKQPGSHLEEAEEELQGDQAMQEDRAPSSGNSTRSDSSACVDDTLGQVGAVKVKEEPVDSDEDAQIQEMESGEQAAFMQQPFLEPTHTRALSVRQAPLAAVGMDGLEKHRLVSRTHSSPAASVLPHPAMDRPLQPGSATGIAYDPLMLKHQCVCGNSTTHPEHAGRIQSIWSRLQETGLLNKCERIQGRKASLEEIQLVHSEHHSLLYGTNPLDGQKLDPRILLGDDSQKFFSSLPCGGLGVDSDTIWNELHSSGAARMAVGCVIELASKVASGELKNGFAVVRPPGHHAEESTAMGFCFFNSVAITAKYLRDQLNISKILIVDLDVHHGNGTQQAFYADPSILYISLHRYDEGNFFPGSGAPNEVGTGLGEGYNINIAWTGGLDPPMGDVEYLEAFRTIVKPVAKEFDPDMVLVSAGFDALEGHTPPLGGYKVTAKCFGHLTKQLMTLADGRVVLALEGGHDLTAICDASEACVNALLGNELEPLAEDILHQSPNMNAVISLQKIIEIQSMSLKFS

Question: What does the source list for COc1ccc(-c2cc(-c3ccoc3)c(C(=O)NCc3ccc(C(=O)NO)cc3)[nH]2)cc1?
Answer: IC50 (Histone deacetylase 3 [1]): 80 nM; IC50 (Histone deacetylase 1 [2]): 70 nM; IC50 [3]: 2 nM

Question: What does the source list for O=C(NO)c1ccc(CN2c3ccccc3S(=O)(=O)C[C@H]3CCCC[C@H]32)cc1?
Answer: IC50 (Histone deacetylase 4 [4]): > 30000 nM; IC50 (Histone deacetylase 5 [5]): 9100 nM; IC50 (Histone deacetylase 2 [6]): 24000 nM; IC50 (Histone deacetylase 1 [7]): 8100 nM; IC50 (Histone deacetylase 8 [8]): 1100 nM; IC50 (Histone deacetylase 3 [9]): 24000 nM; IC50 [10]: 8 nM; IC50 (Histone deacetylase 9): 13000 nM; IC50 (Histone deacetylase 11): 2400 nM; IC50 [11]: 10000 nM

Question: Which results are given for O=C(NO)c1ccc(NCc2csc3ccc(Br)cc23)cc1?
Answer: IC50 (Histone deacetylase 7): > 10000 nM; IC50 (Histone deacetylase 1 [7]): > 10000 nM; IC50 (Histone deacetylase 3 [9]): > 10000 nM

Question: What does the source list for O=C(/C=C/c1cccc(C(=O)NO)c1)NO?
Answer: IC50 (Histone deacetylase 1 [7]): 10 nM; IC50 (Histone deacetylase 3 [9]): 70 nM

Question: Which results are given for O=C(NO)c1ccc(Cn2c3c(c4ccccc42)S(=O)(=O)CC3)cc1?
Answer: IC50 (Histone deacetylase 4 [4]): 600 nM; IC50 (Histone deacetylase 5 [5]): 400 nM; IC50 (Histone deacetylase 2 [6]): > 30000 nM; IC50 (Histone deacetylase 1 [7]): 12000 nM; IC50 (Histone deacetylase 8 [8]): 1900 nM; IC50 [10]: 8 nM; IC50 (Histone deacetylase 9): 200 nM; IC50 (Histone deacetylase 11): 17000 nM; IC50 [11]: 13000 nM

Question: Which IC50 (Histone deacetylase 5 [12]) does the source give for CN1C(=O)C2CN(Cc3c2c2ccccc2n3Cc2ccc(C(=O)NO)cc2)C1=O (stereo not given) here?
Answer: The IC50 was 1570 nM.

Question: And the IC50 (Histone deacetylase 4 [13])?
Answer: The IC50 was 3820 nM.

Question: And the IC50 (Histone deacetylase 2 [14])?
Answer: The IC50 was 7450 nM.

Question: And the IC50 (Histone deacetylase 1 [15])?
Answer: The IC50 was 3620 nM.

Question: And the IC50 (Histone deacetylase 8 [16])?
Answer: Its IC50 is 250 nM.

Question: What about the IC50 [17] of the same molecule?
Answer: The IC50 was 4 nM.

Question: What about the IC50 [18] of the same molecule?
Answer: The IC50 was 10500 nM.

Question: For O=C(CCCc1ccccc1)Nc1ccc(C(=O)NO)cc1, which IC50 [19] is on record?
Answer: Its IC50 is 44 nM.
